This note sets out measurements from publication PMC7277860, “Viridistratins A−C, Antimicrobial and Cytotoxic Benzo[j]fluoranthenes from Stromata of Annulohypoxylon viridistratum (Hypoxylaceae, Ascomycota)” (Biomolecules, 2020).

The assay deals with Candida albicans. Kind of assay: MIC serial dilution assay. The class given is cell-based. Conditions: Candida albicans DSM1665; overnight, 30 °C; reference nystatin 1 mg/mL; read-out: Minimum Inhibitory Concentration (MIC). The procedure:
Compounds 1, 2, 4 and 5 were dissolved in MeOH (1 mg/mL) for the antimicrobial activity assay, while compound 3 was dissolved in MeOH: DMSO 9+1 (1 mg/mL). The solvents were also used as negative controls.
Minimum inhibitory concentrations (MIC) were determined in a serial dilution assay, as described previously; a detailed protocol can be found in the Supporting Information. The compounds (1 mg/mL) were diluted to a range of 66.7 to 0.52 µg/mL and incubated with the test organisms overnight. Inhibition of growth was visually evaluated the next day: the MIC is defined as the lowest concentration of the test compound where no growth of the test organism was observed. Various test organisms of fungal and bacterial origin were tested to cover a broad range of microorganisms. This selection is also being used as a standard test panel in our attempts to discover new anti-infectives, as it represents a broad spectrum of pathogens of clinical interest, as well as sensitive indicator strains (bacteria: Bacillus subtilis, Staphylococcus aureus, Micrococcus luteus, Chromobacterium violaceum, Escherichia coli and Pseudomonas aeruginosa; mycobacteria: Mycolicibacterium smegmatis and fungi: Candida albicans, Schizosaccharomyces pombe, Mucor hiemalis, Pichia anomala and Rhodotorula glutinis).
Protocol: Antimicrobial Activi ty Assay
The assay was conducted as a minimum inhi bitory concentration (MIC) assay in 96-well ro und-bottom mi crotiter pl ate s usi ng the p ar ameter s su mm ari zed i n T a bl e S 1 and as already described i n [S1].
Stocks of the test organi sms were generated by growing the organisms o ver ni ght i n 50 mL shaki ng fl asks fi ll ed wi th 25 mL of the growth medi um at 140 rpm (for media and temperatures see Table S1). If the organisms were well grown the ne xt day, which was checked by occurrence of an optical density (OD)>30 of the suspension (OD600 nm for bacteria, OD548 nm for fungi and M. smegma tis) , aliquots of these were stored i n 1.5 mL reaction tube s in a freezer at −80 °C for up to 12 mo nths . Upon use, aliquots were unth awed and the OD of the suspension measured and adjusted by diluting with the respective growth medi um. OD600 nm w as adj usted to 0.01 and OD548 nm to 0.1.
Subse que ntly, 150 µL o f the adjusted suspensions were added to all wells of a 96-wel l microtiter pl ate (one test organi sm per plate). In row A, additional 130 µL of suspensions plus 20 µL of the test compounds (1 mg/mL) and the controls (one compound/column) were added. MeOH as well as MeOH:DMSO 9+1 were used as negative controls, while different positive controls (refer ences) were used for the test organisms (see Tabl e S1). Then, starti ng from row A, 150 µ L of the suspension were transferred to the next row, the contents thoroughly mixed, and 150 µ L transferred to the following row.
The remaining 150 µ L after row H were discarded. […]
compounds, ranging from 66.7 µg/mL i n row A to 0.52 µg/mL i n row H.
The microtiter plates were then incubated overnight o n a microplate shaker at 800 rpm at 30 or 37 °C (see Table S1) and were visually evaluated the next day. The MIC is defined as the lowest concentration were no growth of the test organism was o bserved. A lower MIC thus corresponds to a higher antimicrobial activity of the test compound.
Table S1: MIC assay ex per i men t parameters test organism strain No. growth incubation positive control (reference) […]
Candida albicans DSM1665 MYC 3 30 nyst ati n 1.0 mg/mL […]
Rhodotorula glutinis DSM10134 MYC 3 30 nyst ati n 1.0 mg/mL
1 MHB: Müller-Hinton Broth (SN X927.1, Ca r l Roth GmbH, Karlsruhe, Germany) 2 7H9+ADC: Middlebrook 7H9 Broth Base + Middlebrook ADC Growth Supplement (SN M0678+M0553, Merck, Darmstadt, Germany)
3 MYC: 1 % w/v, bacto peptone, 1% w/v yeast extract, 2 % w /v glycerol, pH 6.3 [S1] Helaly, S.E.; Ashrafi, S.; Teponno, R.B.; Bernecker, S.; Dababat, A.A.; Maier, W.; Stadler, M.
Nematicidal Cyclic Lipodepsipeptides and a Xanthocillin Derivative from a Phaeosphariaceous […]
Take `O=C1C[C@H]2C(=C3CCC(=O)c4c(O)ccc2c43)c2cccc(O)c21` [Compound 4, truncatone A]: the MIC was more than 66.7 µg/mL.
As for `O=C1CCC(=O)c2c1c(O)cc1c2-c2ccc(O)c3c(O)ccc-1c23` [Compound 5, truncatone C], the MIC is more than 66.7 µg/mL.
As to `Oc1cccc2c3c(ccc12)-c1ccc(O)c2c(O)ccc-3c12` [Compound 1, viridistratin A], the MIC was more than 66.7 µg/mL.
Next, `COc1cccc2c3c(ccc12)-c1ccc(O)c2c(OC)ccc-3c12` [Compound 3, viridistratin C]: more than 66.7 µg/mL; `COc1cccc2c3c(ccc12)-c1ccc(O)c2c(O)ccc-3c12` [Compound 2, viridistratin B]: more than 66.7 µg/mL.
